Measurements from patent US20060014193A1, “Nucleoside phosphoramidates and nucleoside phosphoramidases” (priority 2004, published 2006).

Experiments:
[1] = target: T1, BL21 Star (WT) cell lysates (Escherichia coli, UniProt P0ACE7); assay: 31P NMR phosphoramidase activity in cell lysates; format: biochemical, E. coli; conditions: for Specific activity: 0.5 mg protein
T1 construct: endogenous in cells; host or cells: E. coli BL21 Star
Protocol: (§1) Phosphoramidase activity in cell lysates was measured by the ^1H-decoupling mode of phosphorus-31 NMR spectroscopy (Varian VAC-300 spectrometer), which can clearly distinguish the substrate, AMP-NH2, and the product, adenosine 5′-monophosphate (AMP). NMR spectrometry is suitable for quantitation by integration of the area under the peak, which is proportional to the amount of nuclei present. The relative ratio of peak areas can be used to calculate the amount of turnover corrected based on a standard curve.
Cell lysates from E. coli Tuner(DE3)pLacI cells (Novagen) were obtained by treatment with lysozyme (1 mg/ml) and the DNA was precipitated by protamine sulfate followed by centrifugation to remove cell debris. The supernatant was dialyzed extensively against Buffer A (20 mM Tris (pH 7.0); 1 mM EDTA; 1 mM DTT, 0.01 mM PMSF) to remove cellular phosphates and nucleotides. […] The reactions were terminated by snap freezing in a dry ice/acetone slush bath and lyophilized for 5 h. The samples were then dissolved in NMR buffer (600 μL, 50 mM EDTA, 20 mM HEPES (pH 7.2), and 1 mM TMP (trimethylphosphate, internal standard)) and the insoluble portion was spun down by centrifugation at 12,500×g for 5 min. A ^31P NMR spectrum was then collected for the supernatant. For the low pH control experiment, 10 mM AMP-NH2 in reaction buffer (500 μL, pH 2.0) was incubated at 37° C. for 12 h and the 31p signal was detected under the same conditions.
To determine if E. coli hinT is solely responsible of the observed lysates' phosphoramidase activity, a mutant strain, BB1, in which the hinT gene was replace with the chloramphenicol resistance marker, was constructed. The phosphoramidase activities of the wild-type E. coli BL21 Star strain and the mutant strain lysates were determined (Table 3). […] (Table 2). Therefore, the adenosine phosphoramidase activity observed for E. coli cell lysates appears to be totally dependent on hinT.

E. coli hinT-DHFR = target: T2, E. coli hinT-DHFR (Escherichia coli, UniProt P0ABQ4+P0ACE7); assay: 31P NMR phosphoramidase assay of purified protein; format: biochemical; conditions: 10 mM substrate, pH 7.2, 22° C.
T2 construct: made in house; host or cells: E. coli Tuner(DE3)pLacI
Protocol: as §1
(§2) Cell lysates from E. coli Tuner(DE3)pLacI cells (Novagen) were obtained by treatment with lysozyme (1 mg/ml) and the DNA was precipitated by protamine sulfate followed by centrifugation to remove cell debris. The supernatant was dialyzed extensively against Buffer A (20 mM Tris (pH 7.0); 1 mM EDTA; 1 mM DTT, 0.01 mM PMSF) to remove cellular phosphates and nucleotides. Phosphate free cell lysates (0.75 mg total protein) were incubated with 5 mM AMP-NH2 in 0.5 ml reaction buffer (0.5 mM MgCl2, 20 mM HEPES (pH 7.2)) at 37° C. for intervals of 15 min, 30 min, and 12 h. The reactions were terminated by snap freezing in a dry ice/acetone slush bath and lyophilized for 5 h. The samples were then dissolved in NMR buffer (600 μL, 50 mM EDTA, 20 mM HEPES (pH 7.2), and 1 mM TMP (trimethylphosphate, internal standard)) and the insoluble portion was spun down by centrifugation at 12,500×g for 5 min. A ^31P NMR spectrum was then collected for the supernatant. For the low pH control experiment, 10 mM AMP-NH2 in reaction buffer (500 μL, pH 2.0) was incubated at 37° C. for 12 h and the 31p signal was detected under the same conditions.
(§3) Five recombinant purified proteins were tested with three commercial available compounds (Sigma): AMP-NH2, adenosine 5′-monophosphomorpholidate (AMP-Mor), and guanosine 5′-monophosphomorpholidate (GMP-Mor) (FIG. 1). The compounds (10 mM) were incubated with proteins (2.5-10 μg) in the reaction buffer (500 μL, 0.5 mM MgCl2, 20 mM HEPES (pH 7.2)) at 22° C. for intervals of 36 and 66 min. The reactions were quenched by adding 5 M NaOH (20 μL), followed by snap freezing in a dry ice/acetone slush bath, and lyophilized. The sample preparation for ^31P NMR measurement was as described above for the cell-lysate experiment except that the pH was adjusted by the addition of 12 μL 6 M HCl before NMR spectra were collected.

E. coli hinT = target: T3, E. coli hinT (Escherichia coli, UniProt P0ACE7); assay: 31P NMR phosphoramidase assay of purified protein; format: biochemical; conditions: 10 mM substrate, pH 7.2, 22° C.
T3 sequence (P0ACE7 1-119): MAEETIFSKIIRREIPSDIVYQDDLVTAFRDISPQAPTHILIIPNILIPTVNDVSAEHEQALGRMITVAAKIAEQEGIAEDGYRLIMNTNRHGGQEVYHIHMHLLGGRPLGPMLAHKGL
Protocol: as §1, §2, §3

hHINT1 = hHINT1 (Homo sapiens, UniProt P49773); assay: 31P NMR phosphoramidase assay of purified protein; format: biochemical; conditions: 10 mM substrate, pH 7.2, 22° C.
Protocol: as §1, §2, §3

Human Hint1-DHFR = target: T4, Human Hint1-DHFR (UniProt P0ABQ4+P49773); assay: 31P NMR phosphoramidase assay of purified protein; format: biochemical; conditions: 10 mM substrate, pH 7.2, 22° C.
T4 construct: made in house; host or cells: E. coli (following the procedure for the hinT plasmid)
Protocol: as §1, §2, §3

Rabbit HINT1 = target: T5, Rabbit HINT1 (Oryctolagus cuniculus, UniProt P80912); assay: 31P NMR phosphoramidase assay of purified protein; format: biochemical; conditions: 10 mM substrate, pH 7.2, 22° C.
T5 construct: made in house; host or cells: E. coli hinT deletion mutant
Protocol: as §1, §2, §3

[2] = Low pH control: chemical stability in pH 2.0 buffer by 31P NMR; format: physicochemical; conditions: 10 mM, 37° C.
Protocol: as §2
Tuner(DE3)pLacI, a modified E. coli BL21 strain, was used to determine phosphoramidase activity in cell lysates. […]

ycfF = target: T6, ycfF (Escherichia coli, UniProt P0ACE7); assay: Catalytic activity (velocity) of cloned, purified phosphoramidase with AMPNH2; format: biochemical, E. coli; conditions: pH 7.2, room temperature, 10 mM AMPNH2
T6 construct: made in house
Protocol: The putative bacterial phosphoramidase was cloned and over-expressed as described for the human homologue, and found to be a nucleoside phosphoramidase.
Velocity of the enzymes was determined at pH 7.2 at room temperature in the presence of 10 mM AMPNH2.

Nc1ncnc2c1ncn2[C@@H]1O[C@H](COP(N)(=O)O)[C@@H](O)[C@H]1O [AMP-NH2, Adenosine 5′-monophosphoramidate]
Specific activity of BL21 Star WT cell lysates [1]: 20.1 (±7.7) nmol mg^−1 min^−1 | Specific activity ([1]; 30 min): 15.5 nmol/mg/min | Specific activity ([1]; 70 min): 26.4 nmol/mg/min | Average specific activity ([1]; average): 20.95 ± 7.71 nmol/mg/min | Specific activity (E. coli hinT-DHFR): 753 ± 2 nmol nmol^−1 min^−1 | Specific activity (E. coli hinT): 526 ± 27 nmol nmol^−1 min^−1 | Specific activity (hHINT1): 196 ± 33 nmol nmol^−1 min^−1 | Specific activity (Human Hint1-DHFR): 388 ± 45 nmol nmol^−1 min^−1 | Specific activity (Rabbit HINT1): 70.0 ± 1.3 nmol nmol^−1 min^−1 | Stability at pH 2.0 (no detectable AMP or Pi) [2]: at least 12 h | Velocity (ycfF): 14.19 nmol/µg/min
